For the assay, the target named is T1, human PAH with the R408W mutation (A375 R408W cells) (Homo sapiens, UniProt P00439, R408W).
T1 construct: expressed in transfected cells
T1 sequence (P00439 1-452 R408W): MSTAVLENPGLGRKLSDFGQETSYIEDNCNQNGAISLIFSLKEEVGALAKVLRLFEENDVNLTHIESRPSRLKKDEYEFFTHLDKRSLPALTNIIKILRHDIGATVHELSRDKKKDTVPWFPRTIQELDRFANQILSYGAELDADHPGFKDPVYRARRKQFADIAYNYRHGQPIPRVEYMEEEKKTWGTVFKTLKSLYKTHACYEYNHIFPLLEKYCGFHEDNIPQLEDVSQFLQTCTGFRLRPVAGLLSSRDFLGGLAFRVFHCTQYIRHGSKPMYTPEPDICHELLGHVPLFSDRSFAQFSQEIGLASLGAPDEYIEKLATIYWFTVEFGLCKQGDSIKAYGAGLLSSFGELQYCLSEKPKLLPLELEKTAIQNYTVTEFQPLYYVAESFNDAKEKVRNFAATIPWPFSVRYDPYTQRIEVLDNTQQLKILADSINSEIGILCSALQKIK
Put plainly: Cell Based Phenylalanine Flux Assay. The note with it: 24 hrs with compound, then 20 μM sepiapterin and 800 μM 13C9,15N-Phenylalanine for 4 hours, 13C-Tyrosine by LC-MS, average where tested multiple times. In a few lines: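 LC-MS quantitation of 13C-tyrosine in media gave AC50 values. Stable A375 R408W PAH cells were preincubated 24 h with compound, then fed 800 μM labelled Phe plus 20 μM sepiapterin for 4 h. Dose curves were 10-point, tested in duplicate, averaged over repeat runs.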

Where [1] appears, read: A375 cells expressing R408W PAH.

Turning to `CC(C)(O)c1nc(C(F)F)c(C(=O)N2CCc3[nH]cnc3[C@@H]2c2nc3cc(OC(F)(F)F)ccc3o2)o1` [Example 352, (R)-(4-(difluoromethyl)-2-(2-hydroxypropan-2-yl)oxazol-5-yl)(4-(5-(trifluoromethoxy)benzo[d]oxazol-2-yl)-6,7-dihydro-1H-imidazo[4,5-c]pyridin-5(4H)-yl)methanone], for the setting “A375 R408W cells”, the AC50 (as a rule, the midpoint of the concentration-response curve, whichever way the signal moves) lay within 500 to 1000 nM.
`Cc1cccc2nc([C@@H]3c4nc[nH]c4CCN3C(=O)c3ocnc3C(F)F)oc12` [Example 393, (S)-(4-(difluoromethyl)oxazol-5-yl)(4-(7-methylbenzo[d]oxazol-2-yl)-6,7-dihydro-1H-imidazo[4,5-c]pyridin-5(4H)-yl)methanone]: the AC50 (A375 R408W cells) was no more than 500 nM.
As for `CC(C)(C)OC(=O)N1CCN(c2ccc3c(C(=O)N4CCc5[nH]cnc5C4c4nc5cc(F)ccc5o4)cnn3c2)CC1` (single isomer, unassigned) [4R enantiomer of tert-butyl 4-{3-[4-(5-fluoro-1,3-benzoxazol], the AC50 under setting [1] is no less than 5000 nM.
In the case of `CC(F)(F)c1ncoc1C(=O)N1CCc2[nH]cnc2[C@H]1c1nc2ccc(F)cc2o1` [Example 649, (S)-(4-(1,1-difluoroethyl)oxazol-5-yl)(4-(6-fluorobenzo[d]oxazol-2-yl)-6,7-dihydro-1H-imidazo[4,5-c]pyridin-5(4H)-yl)methanone], the AC50 (A375 R408W cells) was no more than 500 nM.
In the case of `Cn1nc(C(F)F)nc1C(=O)N1CCc2[nH]cnc2[C@H]1c1nc2cccc(F)c2o1` [Example 285, (S)-(3-(difluoromethyl)-1-methyl-1H-1,2,4-triazol-5-yl)(4-(7-fluorobenzo[d]oxazol-2-yl)-6,7-dihydro-1H-imidazo[4,5-c]pyridin-5(4H)-yl)methanone], under “A375 R408W cells”, the AC50 fell in the range of 500 to 1000 nM.
For `CC(O)c1nc(Cl)c(C(=O)N2CCc3[nH]cnc3[C@@H]2c2nc3cc(F)ccc3o2)o1` (single isomer, unassigned) [Example 233], the AC50 (A375 R408W cells) was 1000 to 5000 nM.
Consider `O=C(c1cncs1)N1CCc2[nH]cnc2C1c1nc2ccc(Br)cc2o1` (stereo not shown), for which the AC50 under setting [1] was no less than 5000 nM.
As for `Cc1ccc2oc([C@@H]3c4nc[nH]c4CCN3C(=O)c3oc(-c4ccn(C)n4)nc3C(F)F)nc2c1` [Example 755, (S)-(4-(difluoromethyl)-2-(1-methyl-1H-pyrazol-3-yl)oxazol-5-yl)(4-(5-methylbenzo[d]oxazol-2-yl)-6,7-dihydro-1H-imidazo[4,5-c]pyridin-5(4H)-yl)methanone], the AC50 (A375 R408W cells) was no more than 500 nM.
In the case of `CC(C)(O)c1nc(Cl)c(C(=O)N2CCc3[nH]cnc3[C@H]2c2nc3c(F)cccc3o2)o1` [Example 274, (S)-(4-chloro-2-(2-hydroxypropan-2-yl)oxazol-5-yl)(4-(4-fluorobenzo[d]oxazol-2-yl)-6,7-dihydro-1H-imidazo[4,5-c]pyridin-5(4H)-yl)methanone], where the note is “A375 R408W cells”, the AC50 lay within 500 to 1000 nM.
Same read-out and setting: as for `O=C(c1oc(N2CCC(F)CC2)nc1C(F)F)N1CCc2[nH]cnc2[C@@H]1c1nc2cc(F)ccc2o1` [Example 402, (R)-(4-(difluoromethyl)-2-(4-fluoropiperidin-1-yl)oxazol-5-yl)(4-(5-fluorobenzo[d]oxazol-2-yl)-6,7-dihydro-1H-imidazo[4,5-c]pyridin-5(4H)-yl)methanone], the figure is 1000 to 5000 nM.
The same measure, in the same setting: the value for `COc1ccc2c(C(=O)N3CCc4[nH]cnc4[C@H]3c3nc4cccc(F)c4o3)cnn2c1` [Example 325, (S)-(4-(7-fluorobenzo[d]oxazol-2-yl)-6,7-dihydro-1H-imidazo[4,5-c]pyridin-5(4H)-yl)(6-methoxypyrazolo[1,5-a]pyridin-3-yl)methanone] was no more than 500 nM.
Consider `Cc1ccc2nc(C3c4nc[nH]c4CCN3C(=O)c3nnc(C)o3)oc2c1` (stereo not shown), for which the AC50 under setting [1] was no less than 5000 nM.
The same measure, in the same setting: the value for `O=C(c1nnc(-c2cc[nH]n2)o1)N1CCc2[nH]cnc2C1c1nc2cc(F)ccc2o1` (stereo not shown) was 1000 to 5000 nM.
Consider `Cn1cc(-c2ccc3c(C(=O)N4CCc5[nH]cnc5[C@@H]4c4nc5c(F)cccc5o4)cnn3c2)cn1` [Example 542, (R)-(4-(4-fluorobenzo[d]oxazol-2-yl)-6,7-dihydro-1H-imidazo[4,5-c]pyridin-5(4H)-yl)(6-(1-methyl-1H-pyrazol-4-yl)pyrazolo[1,5-a]pyridin-3-yl)methanone], for which the AC50 (A375 R408W cells) was 1000 to 5000 nM.
Still for that read-out and setting: the value for `O=C(c1nnc(-c2ccn(C(F)F)n2)o1)N1CCc2[nH]cnc2[C@@H]1c1nc2cccc(C(F)(F)F)c2o1` [Example 853, (R)-(5-(1-(difluoromethyl)-1H-pyrazol-3-yl)-1,3,4-oxadiazol-2-yl)(4-(7-(trifluoromethyl)benzo[d]oxazol-2-yl)-6,7-dihydro-1H-imidazo[4,5-c]pyridin-5(4H)-yl)methanone] was 500 to 1000 nM; that for `O=C(c1ocnc1C(F)F)N1CCc2[nH]cnc2[C@H]1c1nc2ccccc2o1` [Example 467, (S)-(4-(benzo[d]oxazol-2-yl)-6,7-dihydro-1H-imidazo[4,5-c]pyridin-5(4H)-yl)(4-(difluoromethyl)oxazol-5-yl)methanone] was no more than 500 nM.
As to `O=C(c1nnc(-c2cnn(S(=O)(=O)C3CC3)c2)o1)N1CCc2[nH]cnc2C1c1nc2cc(F)ccc2o1` (stereo not shown), the concentration at half-maximal activity (AC50) under setting [1] was in the range of 1000 to 5000 nM.
As to `Cc1ccc(F)c2nc([C@H]3c4nc[nH]c4CCN3C(=O)c3oc(C(C)(C)O)nc3C(F)F)oc12` [Example 724, (R)-(4-(difluoromethyl)-2-(2-hydroxypropan-2-yl)oxazol-5-yl)(4-(4-fluoro-7-methylbenzo[d]oxazol-2-yl)-6,7-dihydro-1H-imidazo[4,5-c]pyridin-5(4H)-yl)methanone], the AC50 (A375 R408W cells) is 1000 to 5000 nM.
In the case of `NCCc1ccc2c(C(=O)N3CCc4[nH]cnc4C3c3nc4cc(F)ccc4o3)cnn2c1` (single isomer, unassigned) [4S enantiomer of 2-{3-[4-(5-fluoro-1,3-benzoxazol-2-yl)-1H,4], the AC50 under setting [1] is no less than 5000 nM.
Regarding `O=C(c1oc(N2CCC(F)CC2)nc1C(F)F)N1CCc2[nH]cnc2[C@H]1c1nc2cc(F)ccc2o1` [Example 401, (S)-(4-(difluoromethyl)-2-(4-fluoropiperidin-1-yl)oxazol-5-yl)(4-(5-fluorobenzo[d]oxazol-2-yl)-6,7-dihydro-1H-imidazo[4,5-c]pyridin-5(4H)-yl)methanone], the half-maximal activity concentration (AC50) (A375 R408W cells) was no more than 500 nM.
Still for that read-out and setting: the value for `O=C(c1ocnc1C(F)F)N1CCc2[nH]cnc2[C@@H]1c1nc2c(F)ccc(F)c2o1` [Example 374, (R)-(4-(4,7-difluorobenzo[d]oxazol-2-yl)-6,7-dihydro-1H-imidazo[4,5-c]pyridin-5(4H)-yl)(4-(difluoromethyl)oxazol-5-yl)methanone] was no more than 500 nM.
As for `CC(C)(O)c1nc(C(F)F)c(C(=O)N2CCc3[nH]cnc3[C@@H]2c2nc3cc(Cl)cc(F)c3o2)o1` [Example 606, (R)-(4-(5-chloro-7-fluorobenzo[d]oxazol-2-yl)-6,7-dihydro-1H-imidazo[4,5-c]pyridin-5(4H)-yl)(4-(difluoromethyl)-2-(2-hydroxypropan-2-yl)oxazol-5-yl)methanone], the AC50 (A375 R408W cells) was no more than 500 nM.
Take `Cc1ccc2nc([C@H]3c4nc[nH]c4CCN3C(=O)c3nnc(-c4ccn(C(F)F)n4)o3)oc2c1` [Example 704, (R)-(5-(1-(difluoromethyl)-1H-pyrazol-3-yl)-1,3,4-oxadiazol-2-yl)(4-(6-methylbenzo[d]oxazol-2-yl)-6,7-dihydro-1H-imidazo[4,5-c]pyridin-5(4H)-yl)methanone]: for the setting “A375 R408W cells”, the AC50 fell in the range of 1000 to 5000 nM.
Take `CC(C)(O)c1nc(C(F)F)c(C(=O)N2CCc3[nH]cnc3[C@@H]2c2nc3c(F)cccc3o2)o1` [Example 200, (R)-(4-(difluoromethyl)-2-(2-hydroxypropan-2-yl)oxazol-5-yl)(4-(4-fluorobenzo[d]oxazol-2-yl)-6,7-dihydro-1H-imidazo[4,5-c]pyridin-5(4H)-yl)methanone]: for the setting “A375 R408W cells”, the AC50 lay in the range of 1000 to 5000 nM.
Still for that read-out and setting: as for `Cc1cccc2nc([C@H]3c4nc[nH]c4CCN3C(=O)c3nc(C(F)(F)F)nn3C)oc12` [Example 686, (R)-(1-methyl-3-(trifluoromethyl)-1H-1,2,4-triazol-5-yl)(4-(7-methylbenzo[d]oxazol-2-yl)-6,7-dihydro-1H-imidazo[4,5-c]pyridin-5(4H)-yl)methanone], the figure is 1000 to 5000 nM; as for `Cn1cc(-c2nnc(C(=O)N3CCc4[nH]cnc4[C@H]3c3nc4cc(F)cc(F)c4o3)o2)cn1` [Example 665, (S)-(4-(5,7-difluorobenzo[d]oxazol-2-yl)-6,7-dihydro-1H-imidazo[4,5-c]pyridin-5(4H)-yl)(5-(1-methyl-1H-pyrazol-4-yl)-1,3,4-oxadiazol-2-yl)methanone], no more than 500 nM.
The same measure, in the same setting: as for `O=C(c1nnc(C2CC2)o1)N1CCc2[nH]cnc2[C@H]1c1nc2c(F)ccc(F)c2o1` [Example 855, (S)-(5-cyclopropyl-1,3,4-oxadiazol-2-yl)(4-(4,7-difluorobenzo[d]oxazol-2-yl)-6,7-dihydro-1H-imidazo[4,5-c]pyridin-5(4H)-yl)methanone], the figure is no more than 500 nM.
For the compound `O=C(c1cnn2cc(N3CCC(F)CC3)ccc12)N1CCc2[nH]cnc2C1c1nc2cc(F)ccc2o1` (stereo not shown), the AC50 under setting [1] is no less than 5000 nM.
